Results as given in patent US6579696B1, “Polymyxin B conjugates” (priority 1992, dated 2003).
In brackets after ≈: the same amount, converted by molar mass. Like-named read-outs stand apart in the source and are kept apart here. Ends that are not written are not given here.

What was measured:
[1] = target: Fc receptors of the human U937 monocyte/macrophage cell line (human); assay: saturation binding of 125I-IgG to 2×10^5 U937 cells
[2] = target: Fc receptors of the human U937 monocyte/macrophage cell line (human); assay: 1×10^-8 M 125I-IgG on 2×10^5 U937 cells, no competitor
[3] = test system: E. coli 0111:B4; format: cell-based; parameters: key: −: no agglutination; +: microagglutination; +++: macroagglutination; conditions: avidin beads loaded with compound
Method: (§1) 100 ul polystyrene beads (Spherotech […], 5% w/v) were aliquoted to two 1.5 mL microcentrifuge tubes, centrifuged 1 min at 12,000 g in microcentrifuge and washed 2×with 1 ml PBS (vortexed and recentrifuged 1-2 min after each wash). The beads were resuspended in 900 ul PBS, and 100 ul of 1 mg/ml solution of avidin (Sigma) added, and the tubes rotated overnight at room temperature. The beads were pelleted, and washed sequentially as described above with 1 ml PBS, PBS+0.5% tween 20 (PBST), and PBS, and each sample resuspended in 200 ul PBS. The samples were pooled and stored at 4 degrees.
(§2) 20 ul avidin coated beads were aliquoted into 2×1.5 ml microcentrifuge tubes, and non-specifically binding sites blocked by rotating with 1 ml PBS+1% BSA for 1 hr at room temperature. […] The samples were pelleted, and washed with 1 ml PBS, repelleted and resuspended with 20 ul PBS. III Bacterial Agglutination Assays
(§3) 5 ul of each resin was added to 20 ul bacteria (1/10 dilution of a saturated overnight culture) in independant depression wells (2 wells/bacteria tested). The samples were incubated 30 min at 37 degrees, swirled, and agglutination scored. (Note that −=no agglutination, +=microagglutination and +++=macroagglutination)

[4] = test system: E. coli HB101; format: cell-based; parameters: key: −: no agglutination; +: microagglutination; +++: macroagglutination; conditions: avidin beads loaded with compound
Method: as §1, §2, §3

[5] = test system: Salmonella 34576; format: cell-based; parameters: key: −: no agglutination; +: microagglutination; +++: macroagglutination; conditions: avidin beads loaded with compound
Method: as §1, §2, §3

[6] = test system: E. coli J5; format: cell-based; parameters: key: −: no agglutination; +: microagglutination; +++: macroagglutination; conditions: for Agglutination by avidin beads: Table 53
Method: as §1, §2, §3
To determine if free Immunoadaptor™ compounds can also stably bind surface exposed bacterial structures, agglutination assays were performed using bacteria prebound to Immunoadaptor™ compounds. The assay was performed with J5 bacteria, since the agglutination signal (see table above) was the strongest with this strain. 40 ul avidin coated resin was blocked for 1 hr at room temperature with 1 ml PBS+1% BSA, pelleted as described above, and resuspended in 40 ul PBS. […] The following assays were performed:
Incubated 1 hr at 37 degrees in depression well, swirled and agglutination scored.
Incubated 10 min at 37 degrees then added 5 ul avidin coated beads. Incubated 1 hr at 37 degrees in depression well, swirled and agglutination scored.
Incubated 15 min at 37 degrees, pelleted cells by centrifugation, washed with 100 ul PBS (resuspended cells with micropipetter) and repelleted. Cells were resuspended in 80 ul PBS, 20 ul aliquots distributed to depression well, 5 ul avidin coated beads added, and, incubated 1 hr at 37 degrees, swirled and agglutination scored.

[7] = test system: J5 bacteria phagocytosed by J774A.1 mouse macrophage cell line; format: cell-based; conditions: Table 57; + anti-avidin (1/1000)
[8] = test system: E. coli 0111:B4
[9] = target: avidin and chicken anti-PMB antibody (Gallus gallus, UniProt P02701)
Method: The capture ELISA was performed as described below. […] The coating suspensions were decanted, and all wells were washed three times using PBS+0.5% Tween 20 (PBST). In order to block non-specific binding sites, 100 ul of 1% BSA (Sigma, St. Louis, Mo.) in PBS (blocking solution) was then added to each well, and the plates were incubated for 1 hr. at 37° C.
The blocking solution was decanted, and duplicate samples of 150 ul of either PMB-Cy-Biotin or PMB-Cy-Fl added to the first well of a dilution series. The initial testing concentration of the premixed conjugate was 10 ng/ml in blocking buffer (see above), followed by 5 fold dilutions in blocking buffer. This was accomplished by serially transferring 30 ul aliquots to 120 ul buffer, mixing, and repeating the dilution into a fresh well. After the final dilution, 30 ul was removed from the well such that all wells contained 120 ul final volume. A total of 2 such dilutions were performed. […] Following this incubation, the serially diluted samples were decanted, and the wells were washed six times using PBST (Phosphate-Buffered Saline with Tween). To each well, 100 ul of 1/1000 diluted chicken anti-PMB antibody or chicken preimmune, diluted in blocking buffer was added, and the plate incubated 1 hr at 37° C. The antibody solutions were decanted and the plates were washed as described above. To each well, 100 ul of 1/1000 diluted rabbit anti-chicken IgG alkaline phosphatase (Sigma) diluted in blocking buffer was added, and the plate incubated 1 hr at 37° C. The antibody solutions were decanted and the plates were washed as described above, substituting 50 nM Na2CO3, pH 9.5 for the PBST in the final wash. The plates were developed by the addition of 100 ul of a solution containing 1 mg/ml para-nitro phenyl phosphate (Sigma, St. Louis, Mo.) dissolved in 50 nM Na2CO3, 10 mM MgCl2, pH 9.5 to each well, and incubating the plates at room temperature in the dark overnight. […] Only the ELISA readings from the maximally diluted samples in each dilution series are shown.

[10] = test system: E. coli HB101; assay: MIC and MBC in broth; format: cell-based; conditions: Example 38
[11] = test system: Staphylococcus epidermidis; assay: MIC and MBC; format: cell-based
[12] = test system: S. aureus; assay: MIC testing against S. aureus; format: cell-based, Staph. aureus; conditions: Staphylococcus aureus
Method: 1.5 ml fractions were collected. The fractions in the void volume were pooled and sterile filtered. The activity of the conjugate was determined by standard MIC testing against S. aureus.

[13] = vancomycin after reaction with crosslinker, aqueous solution
Excerpt: Vancomycin in phosphate buffer was reacted with each of the following compounds: sulfosuccinimidyl 6-[3-(2-pyridyldithio)propionamide]hexanoate (“sulfo-LC-SPDP”), m-maleimidobenzoyl-N-hydroxysulfosuccinimide ester (“sulfo-MBS”), sulfosuccinimidyl(4-iodoacetyl)aminobenzoate (“sulfo-SIAB”), and sulfosuccinimidyl 4-(p-maleimidophenyl)butyrate (“sulfo-SMPB”). All four crosslinking agents react with a primary amino group on the vancomycin molecule, resulting in the formation of an amide bond. […] Finally, vancomycin derivatized by sulfo-SIAB posesses an iodo group, which can also react with a sulfhydryl group on either reduced IgG or derivatized IgG, by nucleophilic substitution for the iodo group. […] The mixtures were incubated with agitation at ambient temperature.

[14] = test system: K. pneumoniae LPS; assay: Polarization of PMB-FITC by LPS; format: binding; conditions: 50 ul of 1 mg/ml LPS; PMB-FITC 1 to 150
[15] = test system: P. aeruginosa LPS; assay: Polarization of PMB-FITC by LPS; format: binding; conditions: 50 ul of 1 mg/ml LPS; PMB-FITC 1 to 150
[16] = test system: R. sphaeroides LPS; assay: Polarization of PMB-FITC by LPS; format: binding; conditions: 50 ul of 1 mg/ml LPS; PMB-FITC 1 to 150
[17] = test system: S. marsecens LPS; assay: Polarization of PMB-FITC by LPS; format: binding; conditions: 50 ul of 1 mg/ml LPS; PMB-FITC 1 to 150
[18] = test system: S. enteriditis LPS; assay: Polarization of PMB-FITC by LPS; format: binding; conditions: 50 ul of 1 mg/ml LPS; PMB-FITC 1 to 150
[19] = test system: S. typhimurium LPS; assay: Polarization of PMB-FITC by LPS; format: binding; conditions: 50 ul of 1 mg/ml LPS; PMB-FITC 1 to 150
[20] = test system: E. coli 011B4 LPS; format: binding; conditions: 50 ul of 1 mg/ml LPS; PMB-FITC 1 to 150
Excerpt: (§4) The data for this example were generated on a fluorescence polarimeter (FPM-1, provided by Jolley Consulting and Research, Inc.) based on this optical configuration. The instrument and software generates output which includes vertical intensity (IV), horizontal intensity (IH), total intensity (IT) after correction of horizontal intensity by a constant (g), fluorescence polarization in millipolarization unit (mP) and lamp feed-back, a correction for lamp and photomultiplier tube variations.
(§5) Each of ten different lipopolysaccarides (LPS) were dissoved in distilled water at a concentration of 1 mg/ml.

[21] = test system: E. coli 026B6 LPS; format: binding; conditions: 50 ul of 1 mg/ml LPS; PMB-FITC 1 to 150
Excerpt: as §4, §5

[22] = test system: S. flexneri LPS; format: binding; conditions: 50 ul of 1 mg/ml LPS; PMB-FITC 1 to 150
Excerpt: as §4, §5

[23] = test system: V. cholera LPS; format: binding; conditions: 50 ul of 1 mg/ml LPS; PMB-FITC 1 to 150
Excerpt: as §4, §5

[24] = test system: E. coli HB101
[25] = test system: E. coli 25922; format: cell-based; conditions: Table 42
[26] = test system: E. coli H16; format: cell-based; conditions: Table 42
[27] = test system: E. coli 25922
[28] = test system: E. coli H16
[29] = test system: Salmonella 34576; conditions: Table 43
[30] = target: avidin (Sigma) (UniProt P02701); assay: capture ELISA: PMB-Cys-FL on avidin-coated wells, detected with chicken anti-PMB 1/1000
[31] = target: avidin (Sigma) (UniProt P02701); assay: capture ELISA: PMB-Cys-FL on avidin-coated wells, chicken preimmune 1/1000 (double control)
[32] = target: polymyxin B-cysteine-maleimide-fluorescein (PMB-Cys-Mal-FL) (Bacillus polymyxa); assay: fluorescence intensity of PMB-Cys-Mal-FL with antibody
[33] = target: polymyxin B-cysteine-maleimide-fluorescein (PMB-Cys-Mal-FL) (Bacillus polymyxa); assay: fluorescence quenching on PMB-Cys-Mal-FL coated E. coli
[34] = target: polymyxin B-cysteine-maleimide-fluorescein (PMB-Cys-Mal-FL) (Bacillus polymyxa); assay: quenching of PMB-Cys-Mal-FL coated on E. coli 0111:B4; antibody 1 ug/ml (without antibody: 40)
[35] = target: polymyxin B-cysteine-maleimide-fluorescein (PMB-Cys-Mal-FL) (Bacillus polymyxa); assay: quenching of PMB-Cys-Mal-FL coated on E. coli 0111:B4; antibody 2 ug/ml (without antibody: 40)
[36] = target: polymyxin B-cysteine-maleimide-fluorescein (PMB-Cys-Mal-FL) (Bacillus polymyxa); assay: fluorescence polarization, antibody 5×10^-8 M with PMB-Cys-Mal-FL 10^-7 M (free conjugate: 740)
[37] = target: polymyxin B-cysteine-maleimide-fluorescein (PMB-Cys-Mal-FL) (Bacillus polymyxa); assay: fluorescence polarization, antibody 5×10^-8 M with PMB-Cys-Mal-FL 10^-7 M (free conjugate: 845)
[38] = target: polymyxin B-cysteine-maleimide-fluorescein (PMB-Cys-Mal-FL) (Bacillus polymyxa); assay: quenching of PMB-Cys-Mal-FL coated on E. coli 0111:B4; antibody 22 ug/ml (without antibody: 40)
[39] = target: polymyxin B-cysteine-maleimide-fluorescein (PMB-Cys-Mal-FL) (Bacillus polymyxa); assay: fluorescence polarization, antibody 5×10^-8 M with PMB-Cys-Mal-FL 10^-7 M (free conjugate: 32.5 mP)
[40] = target: avidin (Sigma) (UniProt P02701); assay: capture ELISA: PMB-Cys-Biotin on avidin-coated wells, detected with chicken anti-PMB 1/1000; maximally diluted sample of a 5-fold series from 10 ng/ml
[41] = Table 40, first number of the cell

avidin and chicken anti-PMB antibody, sequence (P02701 25-152): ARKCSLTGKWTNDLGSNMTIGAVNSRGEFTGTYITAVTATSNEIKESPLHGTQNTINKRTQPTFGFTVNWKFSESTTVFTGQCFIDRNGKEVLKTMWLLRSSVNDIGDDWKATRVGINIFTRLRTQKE
avidin (Sigma), sequence (P02701 25-152 limits assumed): as the sequence (P02701 25-152) above

Q: With “125I-labelled human IgG (New England Nuclear) (antibody)” as the compound, how does the saturating concentration [1] read?
A: 10 nM

Q: What about the bound radioactivity (cpm) [2] of the same compound?
A: 12000 cpm

Q: What does the source list for “Biotinylated Cysteinyl PMB [PMB-Cys-Biotin]”?
A: Agglutination [3]: −; Agglutination [4]: +; Agglutination [5]: +; Agglutination by avidin beads ([6]; Chase format): +; Agglutination by avidin beads ([6]; Premix format): +; Agglutination by avidin beads ([6]; Wash + Chase format): +; Agglutination ([6]; avidin beads loaded with compound): +++; % Macrophage with phagocytosed bacteria [7]: 21%; Recovered bacterial colonies [7]: 74; MIC [8, 41]: 1.0 µg/mL; ELISA absorbency at 410 nm ([9]; Anti-PMB test antibody, Avidin coated wells, maximally diluted sample): 1.252; ELISA absorbency at 410 nm ([9]; Anti-PMB, PBS coated wells): 0.016; ELISA absorbency at 410 nm ([9]; Preimmune, Avidin coated wells): 0.014; ELISA absorbency at 410 nm ([9]; Preimmune, PBS coated wells): 0.019

Q: With “Limulus antilipopolysaccharide factor [native LALF]” as the compound, how does the MIC [10] read?
A: 16 µg/mL

Q: What does the source list for `CN[C@H](CC(C)C)C(=O)N[C@H]1C(=O)N[C@@H](CC(N)=O)C(=O)N[C@H]2C(=O)N[C@H]3C(=O)N[C@H](C(=O)N[C@H](C(=O)O)c4cc(O)cc(O)c4-c4cc3ccc4O)[C@H](O)c3ccc(c(Cl)c3)Oc3cc2cc(c3O[C@@H]2O[C@H](CO)[C@@H](O)[C@H](O)[C@H]2O[C@H]2C[C@](C)(N)[C@H](O)[C@H](C)O2)Oc2ccc(cc2Cl)[C@H]1O` [Vanco, Vancomycin]?
A: MBC [11]: 2.5 µg/mL (≈ 1.73 µM); MIC [12]: 1 to 2 µg/mL (≈ 0.69 to 1.38 µM); MIC ([12]; read-out: MIC w/o IgG): 1 µg/mL (≈ 0.69 µM); Soluble [13]: Yes

Q: Which results are given for “PMB-5-Thiocabamoyl-fluorescein [PMB-FITC]”?
A: mP [14]: 258.5; mP [15]: 236.4; mP [16]: 224.7; mP [17]: 262.6; mP [18]: 255.9; mP [19]: 266.8; mP [20]: 254.6; mP [21]: 70.3; mP [22]: 246.3; mP [23]: 174.8; MIC [24, 41]: 0.2 µg/mL; MIC ([24]; Table 44): 0.2 µg/mL

Q: Which BDA [25] does the source give for “ALYKKLLKKLLKSAKKLG [C18G, ala-leu-tyr-lys-lys-leu-leu-lys-lys-leu-leu-lys-ser-ala-lys-lys-leu-gly, reference compound]” here?
A: 1 µg/mL

Q: And the BDA [26]?
A: 5 to 10 µg/mL

Q: What about the MIC ([8]; 0111:B4) of the same compound?
A: 10 µg/mL

Q: And the MIC [27]?
A: 2 to 4 µg/mL

Q: And the MIC [28]?
A: 30 µg/mL

Q: What about the MIC [29] of the same compound?
A: 5 to 10 µg/mL

Q: For “polymyxin B-cysteine-maleimide-fluorescein (PMB-Cys-Mal-FL) (peptide)”, which absorbance at 410 nm [30] is on record?
A: 0.033 A410

Q: And the absorbance at 410 nm [31]?
A: 0.01 A410

Q: Which percent of the intensity signal quenched [32] does the source give for “mouse monoclonal anti-fluorescein antibody (#4-4-20)” here?
A: 95%

Q: And the fraction of fluorescein available to bind the antibody [33]?
A: 0.67

Q: And the FLUORESCENCE (AFU) [34]?
A: 16 AFU

Q: And the FLUORESCENCE (AFU) [35]?
A: 15 AFU

Q: What about the IH (horizontal intensity) [36] of the same compound?
A: 25

Q: What about the IV (vertical intensity) [37] of the same compound?
A: 61

Q: What about the FLUORESCENCE (AFU) [38] of the same compound?
A: 15 AFU

Q: What about the mP (millipolarization) [39] of the same compound?
A: 390 mP

Q: For “Biotinylated Cysteinyl PMB (PMB-Cys-Biotin) (peptide)”, which absorbance at 410 nm [40] is on record?
A: 1.25 A410
